The target of data set [1] is T1, 5-HT1A (Rattus norvegicus, UniProt P19327).
T1 construct: the whole brain with the exception of the brainstem and cerebellum was rapidly removed; from tissue
T1 sequence (P19327 1-422): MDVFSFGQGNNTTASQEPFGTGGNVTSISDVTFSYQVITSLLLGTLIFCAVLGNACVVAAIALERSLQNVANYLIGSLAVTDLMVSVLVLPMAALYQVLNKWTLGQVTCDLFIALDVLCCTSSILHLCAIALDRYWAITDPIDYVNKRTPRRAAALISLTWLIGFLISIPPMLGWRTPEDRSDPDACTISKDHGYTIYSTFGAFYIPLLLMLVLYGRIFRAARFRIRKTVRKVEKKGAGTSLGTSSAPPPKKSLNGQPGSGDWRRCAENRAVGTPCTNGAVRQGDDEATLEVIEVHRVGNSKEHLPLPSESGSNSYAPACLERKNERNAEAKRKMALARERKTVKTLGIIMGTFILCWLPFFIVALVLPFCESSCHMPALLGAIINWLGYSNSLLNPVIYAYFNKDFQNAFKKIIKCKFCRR
Nature of the data set: 5-HT1A radioligand binding ([3H]-8-OH-DPAT). Particulars: [3H]-8-OH-DPAT, rat cortex; read-out: in vitro binding IC50, 5HT1A. More on the design: species or system rat (male Sprague-Dawley). Put shortly: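 Rat forebrain membranes (whole brain minus brainstem and cerebellum) in 50 mM Tris pH 8.0 with NaCl, CaCl2, MgCl2 and 10 μM pargyline; 1 nM [3H]-8-OH-DPAT, 15 min at 37° C., filtration. Nonspecific binding defined with 10 μM 5-HT; IC50 by semi-log plot and linear regression.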

For data set [2], the system named is central dopamine receptors. Nature of the data set: Locomotor activity and DA synthesis in reserpinized rats. The class given is in vivo, rat.
The test system of data set [3] is habituated rats. The data set is described as follows: Locomotor activity and behavior in habituated rats. Conditions: habituated rats. It is filed as in vivo, rat (male Sprague-Dawley). The protocol: Footnotes Table 3. The rats were habituated to the motility meters 60 min
prior to the activity session.
(§1) Injection volumes were 5 mL/kg.
Locomotor activity was measured in rats which were habituated 60 minutes to the activity meters before drug injection. The activity was measured for the subsequent 60 minutes and expressed as % of controls (means ±SEM, n=4).

Data set [4] addresses T2, D2 receptors (Rattus norvegicus, UniProt P61169).
T2 construct: Preparation of rat striatal membranes for (3H)-spiperone; from tissue; host or cells: rat striatum (striatal membranes)
Nature of the data set: D2 antagonist binding ([3H]-spiperone), rat striatum. The method, then: D2 antagonist binding. Preparation of rat striatal membranes for (3H)-spiperone (specific activity 21-24 Ci/mmol) binding was carried out in a similar manner as described for D1-binding, Hyttel et al., J. Neural. Transm., 68, 171 (1987).
IC50 values were calculated by semi-log plot and linear regression analysis.

Data set [5] concerns DA receptor. Nature of the data set: DOPA accumulation (DA synthesis rate) in non-pretreated rats after NSD 1015.
Data set [6] concerns 5-HT receptor. The data set is described as follows: 5-HTP accumulation (5-HT synthesis rate) in non-pretreated rats after NSD 1015. The class given is in vivo, rat (male Sprague-Dawley). The protocol: observations are commented to the right. After the session the rats were
accumulation in the NErich cortical regions and 5HTP in the limbic
as §1

In data set [7] the test system is non-pretreated rats. The data set is described as follows: Locomotor activity and gross behavior in non-habituated (non-pretreated) rats. Particulars: non-pretreated rats.
The test system of data set [8] is DA receptor. The data set is described as follows: DA metabolism (DOPAC, HVA levels) in habituated rats. The class given is in vivo, rat (male Sprague-Dawley). Particulars: for response vs control in vivo at 100 µmol/kg: Rattus norvegicus, sc, 1 h. Put shortly:
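Rats habituated to motility meters 60 min, no NSD given; killed one hour after drug administration (injection volume 5 mL/kg). Striatal and limbic DOPAC, HVA and 5-HIAA measured by HPLC-EC, expressed as % of controls (means ±SEM).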

Data set [9] deals with non-pretreated rats. Particulars: Johansson et al.; cited from earlier work.
For data set [10], the system named is DA receptor. Conditions: no NSD1015 treatment; Johansson et al.; cited from earlier work.
The conditions of data set [11]: comparison values, source not given; cited from earlier work.
The subject of data set [12] is DA receptor. Particulars: after NSD1015; Johansson et al.; cited from earlier work.
In data set [13] the test system is d-amphetamine-induced hyperactivity. Nature of the data set: d-Amphetamine-induced hyperactivity in habituated rats. It is filed as in vivo, rat. Conditions: test compound 14 mg/kg, sc; d-amphetamine 5 mg/kg.
The subject of data set [14] is D3. Conditions: Sokoloff, et al., Nature, 347 146-51 (1990); series of classical and atypical neuroleptics; cited from earlier work.
The test system of data set [15] is dopamine autoreceptors. The data set is described as follows: GBL-model (DA synthesis rate; presynaptic dopamine autoreceptors). The class given is in vivo, rat. Conditions: apomorphine […], sc; GBL 750 mg/kg, i.p. The text has this: The effects on DOPA accumulation in the GBL-model is considered to reflect an event at the presynaptic dopamine autoreceptors (for further details, see Svensson et al., Nunyn-Schmiedeberg's Arch. Pharm., 334, 234(1986)).

Data set [16] can be described thus: in vivo. Particulars: rat. Further details: species or system rat (male Sprague-Dawley). The protocol:
This is in contrast to the actions of the preferential dopamine autoreceptor antagonists (+)-AJ76 and (+)-UH232 5. The blood levels of (±)-34 were measured after oral (40 μmol/kg) and iv (5 μmol/kg) administration of the drug to male Sprague-Dawley rats (250-300 g) that were cannulated with catheters in the jugular vein and the arteria carotis. The levels of (±)-34 were measured in whole blood by means of GC-MS. […] The oral availability is considerably better than the values obtained for (+)-UH232 and (+)-AJ76 (approximately 6 and 3%, respectively).

Data set [17] concerns central dopamine receptors. Conditions: Hacksell et al., J. Med. Chem., 24, 1475 (1981); cited from earlier work.

Read-outs that look alike come from different tables or passages of the source.

T2 sequence (P61169 whole entry): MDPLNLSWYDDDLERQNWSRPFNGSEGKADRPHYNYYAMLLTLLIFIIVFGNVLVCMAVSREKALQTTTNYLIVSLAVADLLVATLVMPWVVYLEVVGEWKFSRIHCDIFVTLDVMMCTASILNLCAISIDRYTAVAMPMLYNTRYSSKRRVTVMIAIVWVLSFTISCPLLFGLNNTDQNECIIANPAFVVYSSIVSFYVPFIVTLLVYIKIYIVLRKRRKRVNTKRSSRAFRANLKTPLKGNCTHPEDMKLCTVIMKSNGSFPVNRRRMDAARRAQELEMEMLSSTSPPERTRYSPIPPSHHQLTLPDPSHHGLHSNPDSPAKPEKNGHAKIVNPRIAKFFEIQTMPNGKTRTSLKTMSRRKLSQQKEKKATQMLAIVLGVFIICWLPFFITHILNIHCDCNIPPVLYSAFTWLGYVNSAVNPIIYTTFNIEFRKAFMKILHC

As to `CCCN1CCC[C@H](c2cccc(C#N)c2)C1` [R-(+)-34, R-(+)-3-(3-Cyanophenyl-N-n-propyl)piperidine], the IC50 (as a rule, the concentration at which inhibition is half-maximal) in [1] came out at 14 µM; in data set [4] (read-out: in vitro binding IC50, D2 -spip, [3H]-spiperone, rat striatum), 100 µM. In data set [2] (50 μmol/kg, sc, reserpine 5 mg/kg, 18 h before), the “motor activity in reserpinized rats” value was found to be 6±2 counts/30 min. Also, in data set [2] (reserpinized rats), the “DA synthesis rate / DOPA accumulation in reserpinized rats (in words)” value is reported as “failed to produce locomotor stimulation or to affect the DA synthesis rate in reserpinized rats”. Further, the “locomotor stimulation in reserpinized rats (in words)” value is “failed to activate the reserpinized rats” in data set [2] (reserpinized rats) and “failed to produce locomotor stimulation” in data set [2] (reserpinized rats, listed as (R)-34). Also, the Behavioral observations entry in data set [3] (100 μmol/kg sc) was “Activation”. Moreover, in [3], the “locomotor activity in habituated rats (in words)” value is given as “stimulates the locomotor activity in habituated rats”. The “affinity for D2 receptors (in words)” value in [4] ((3H)-Spiperone binding) is recorded as “essentially no affinity for D2 receptors”. Also, the “DOPA acc Cortex” value in data set [5] (50 po) is reported as 103 ± 9 % of saline controls; in data set [5] (50 sc), 145 ± 11 % of saline controls. Also, the results for the “DOPA acc Stratium” value in data set [5] (50 po) and in data set [5] (50 sc) were 172 ± 8 % of saline controls and 281 ± 11 % of saline controls, respectively. In addition, the “5-HTP acc Limbic Region” value in data set [6] (50 po) was 99 ± 3 % of saline controls; in data set [6] (50 sc), 82 ± 1 % of saline controls. For the same compound, the “Gross Behavioral Observations” value in data set [7] (50 po) is given as “No change”; in data set [7] (50 sc), “stimulat”. The “Motor Act.” value in [7] (50 po, 30 min) is reported as 133 ± 14 % of saline controls. Further, the response vs control in vivo at 100 µmol/kg in data set [8] (read-out: DOPAC limbic) turned out to be 120 ± 5%; in data set [8] (read-out: DOPAC striatum), 117 ± 3%. Moreover, the “limbic DOPAC levels (in words)” value in data set [8] (rat, in vivo) was “only weakly elevated limbic DOPAC”.

Consider `CCCN[C@@H]1CCc2c(OC)cccc2[C@@H]1C` [(+)-AJ76, (+)-cis-1S,2R-5-methoxy-1-methyl-2-(N-n-propylamino)tetralin], for which the “locomotor activity (photocell motility meters)” value in data set [9] is “increase the locomotor activity”. For the same compound, the “levels of the DA metabolites DOPAC and HVA” value in data set [10] is “raise the levels of the DA metabolites DOPAC and HVA”. The oral availability entry in data set [11] is given as “approximately 3%”. Moreover, in [12], the “Dopa accumulation in normal animals” value is given as “raise the Dopa accumulation”. Besides, the “effect on activation induced by high dose d-amphetamine” value in data set [13] was “clearly blocked the stimulation”. Also, the “preference for the D3 site” value in data set [14] was “highest preference for the D3 site”.

`CN1CCc2cccc3c2[C@H]1Cc1ccc(O)c(O)c1-3` [apomorphine, reference compound]: in data set [15], the “effect on GBL-elevated limbic and striatal DA synthesis rate” value is “completely reversed”.

As for `CCCN(CCC)[C@@H]1CCc2c(OC)cccc2[C@@H]1C` [(+)-UH232, (+)-cis-1S,2R-5-methoxy-1-methyl-2-(N,N-di-n-propylamino)tetralin], the “locomotor activity (photocell motility meters)” value in data set [9] is “increase the locomotor activity”. In addition, the “levels of the DA metabolites DOPAC and HVA” value in [10] is “raise the levels of the DA metabolites DOPAC and HVA”. The oral availability entry in data set [11] was “approximately 6%”. In addition, in data set [12], the “Dopa accumulation in normal animals” value is given as “raise the Dopa accumulation”. Further, the “preference for the D3 site” value in data set [14] is “highest preference for the D3 site”.

On to `CCCN1CCCC(c2cccc(C#N)c2)C1` (racemic) [(±)-34, 3-(3-cyanophenyl-N-n-propyl)piperidine], for which the half-life (usually how long it takes for the measured level to halve) in data set [16] (iv) was about 3 h. Moreover, in [16] (po, oral bioavailability), the bioavailability – broadly, dose-corrected exposure relative to a reference, in per cent – was about 78%. Further, the “direct receptor agonistic effects in reserpinized rats” value in data set [17] is recorded as “no direct receptor agonistic effects”.

The record behind these values is patent US5594024A, “Centrally actig substituted phenylazacycloalkanes” (priority 1995, dated 1997).
